Reference: PubChem BioAssay AID2060487 (Molecular Pharmacology Branch, DTP, NCI, 2025)

System: 997537-175-T-J1-PDC complex spheroid viability
Assay: Anticancer human tumor 997537-175-T-J1-PDC patient-derived colon adenocarcinoma cell line growth inhibition [GQUAD]
Conditions: for IC50: curve of first compound; for viability, T/C: stronger effect = lower value
In short: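 Multi-cell-type spheroids of tumor cells with HUVEC and mesenchymal stem cells, treated with drug combinations. Concentrations descend in half-log steps from near clinical Cmax, or from 10 microM where Cmax is unknown; viability read-out.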

[1] = second compound 0.0316 µM, first compound 0.0316 µM
[2] = second compound 0.0316 µM, first compound 0.1 µM
[3] = second compound 0.0316 µM, first compound 0.316 µM
[4] = second compound 0.0316 µM, first compound 1 µM
[5] = second compound 0.0316 µM, first compound 3.16 µM
[6] = second compound 0.0316 µM, first compound 10 µM
[7] = second compound 0.1 µM, first compound 0.0316 µM
[8] = second compound 0.1 µM, first compound 0.1 µM
[9] = second compound 0.1 µM, first compound 0.316 µM
[10] = second compound 0.1 µM, first compound 1 µM
[11] = second compound 0.1 µM, first compound 3.16 µM
[12] = second compound 0.1 µM, first compound 10 µM
[13] = second compound 0.316 µM, first compound 0.0316 µM
[14] = second compound 0.316 µM, first compound 0.1 µM
[15] = second compound 0.316 µM, first compound 0.316 µM
[16] = second compound 0.316 µM, first compound 1 µM
[17] = second compound 0.316 µM, first compound 3.16 µM
[18] = second compound 0.316 µM, first compound 10 µM
[19] = second compound 1 µM, first compound 0.0316 µM
[20] = second compound 1 µM, first compound 0.1 µM
[21] = second compound 1 µM, first compound 0.316 µM
[22] = second compound 1 µM, first compound 1 µM
[23] = second compound 1 µM, first compound 3.16 µM
[24] = second compound 1 µM, first compound 10 µM
[25] = second compound 3.16 µM, first compound 0.0316 µM
[26] = second compound 3.16 µM, first compound 0.1 µM
[27] = second compound 3.16 µM, first compound 0.316 µM
[28] = second compound 3.16 µM, first compound 1 µM
[29] = second compound 3.16 µM, first compound 3.16 µM
[30] = second compound 3.16 µM, first compound 10 µM
[31] = second compound 10 µM, first compound 0.0316 µM
[32] = second compound 10 µM, first compound 0.1 µM
[33] = second compound 10 µM, first compound 0.316 µM
[34] = second compound 10 µM, first compound 1 µM
[35] = second compound 10 µM, first compound 3.16 µM
[36] = second compound 10 µM, first compound 10 µM
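Note: spheroids exposed to the agents for 7 days.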
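Throughout, for viability, T/C: 100% = DMSO vehicle control viability.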

CC(=O)O[C@H]1C(=O)[C@@]2(C)[C@H]([C@H](OC(=O)c3ccccc3)[C@]3(O)C[C@H](OC(=O)[C@H](O)[C@@H](NC(=O)c4ccccc4)c4ccccc4)C(C)=C1C3(C)C)[C@]1(OC(C)=O)CO[C@@H]1C[C@@H]2O + CN(C)c1ccc(Nc2c3ccc(NC(=O)CCN4CCCC4)cc3nc3cc(NC(=O)CCN4CCCC4)ccc23)cc1
IC50 (second compound 0.0316 µM): 0.0791 µM | IC50 (second compound 0.1 µM): 0.0677 µM | IC50 (second compound 0.316 µM): 0.0746 µM | IC50 (second compound 1 µM): 0.0531 µM | IC50 (second compound 3.16 µM): < 0.0316 µM | IC50 (second compound 10 µM): 0.059 µM | viability, T/C [1]: 75.2% | viability, T/C [2]: 43.6% | viability, T/C [3]: 28.1% | viability, T/C [4]: 21.5% | viability, T/C [5]: 32.2% | viability, T/C [6]: 29.4% | viability, T/C [7]: 67.3% | viability, T/C [8]: 40.9% | viability, T/C [9]: 36.9% | viability, T/C [10]: 21.1% | viability, T/C [11]: 30.7% | viability, T/C [12]: 34.9% | viability, T/C [13]: 78.3% | viability, T/C [14]: 36.5% | viability, T/C [15]: 34.5% | viability, T/C [16]: 19.4% | viability, T/C [17]: 16.6% | viability, T/C [18]: 21.1% | viability, T/C [19]: 71.6% | viability, T/C [20]: 9.98% | viability, T/C [21]: 35.1% | viability, T/C [22]: 18.1% | viability, T/C [23]: 29.6% | viability, T/C [24]: 24.8% | viability, T/C [25]: 37.7% | viability, T/C [26]: 45.5% | viability, T/C [27]: 31.9% | viability, T/C [28]: 18.1% | viability, T/C [29]: 20.1% | viability, T/C [30]: 41.8% | viability, T/C [31]: 72% | viability, T/C [32]: 28.8% | viability, T/C [33]: 34.4% | viability, T/C [34]: 35.7% | viability, T/C [35]: 29.8% | viability, T/C [36]: 27.3%

O=C(NO)c1cnc(N2CCN(S(=O)(=O)c3ccc4ccccc4c3)CC2)nc1 + CN(C)c1ccc(Nc2c3ccc(NC(=O)CCN4CCCC4)cc3nc3cc(NC(=O)CCN4CCCC4)ccc23)cc1
IC50 (second compound 0.0316 µM): 2.41 µM | IC50 (second compound 0.1 µM): 1.44 µM | IC50 (second compound 0.316 µM): 2.04 µM | IC50 (second compound 1 µM): 1.53 µM | IC50 (second compound 3.16 µM): 1.61 µM | IC50 (second compound 10 µM): 2.12 µM | viability, T/C [1]: 96% | viability, T/C [2]: 88.2% | viability, T/C [3]: 105% | viability, T/C [4]: 76.5% | viability, T/C [5]: 41.6% | viability, T/C [6]: 0.32% | viability, T/C [7]: 112% | viability, T/C [8]: 90.9% | viability, T/C [9]: 91% | viability, T/C [10]: 66.8% | viability, T/C [11]: 18% | viability, T/C [12]: 0.22% | viability, T/C [13]: 94.3% | viability, T/C [14]: 97.8% | viability, T/C [15]: 82.1% | viability, T/C [16]: 82.4% | viability, T/C [17]: 30.8% | viability, T/C [18]: 0.23% | viability, T/C [19]: 69.8% | viability, T/C [20]: 86.4% | viability, T/C [21]: 98.9% | viability, T/C [22]: 77.8% | viability, T/C [23]: 3.02% | viability, T/C [24]: 0.59% | viability, T/C [25]: 63.6% | viability, T/C [26]: 105% | viability, T/C [27]: 105% | viability, T/C [28]: 84.1% | viability, T/C [29]: 1.75% | viability, T/C [30]: 0.47% | viability, T/C [31]: 83.4% | viability, T/C [32]: 90% | viability, T/C [33]: 95.6% | viability, T/C [34]: 79% | viability, T/C [35]: 34.1% | viability, T/C [36]: 0.44%

C#Cc1c(F)ccc2cc(O)cc(-c3ncc4c(N5CC6CCC(C5)N6)nc(OCC56CCCN5CC(F)C6)nc4c3F)c12 (stereo not given) + CN(C)c1ccc(Nc2c3ccc(NC(=O)CCN4CCCC4)cc3nc3cc(NC(=O)CCN4CCCC4)ccc23)cc1
IC50 (second compound 0.0316 µM): > 10 µM | IC50 (second compound 0.1 µM): > 10 µM | IC50 (second compound 0.316 µM): > 10 µM | IC50 (second compound 1 µM): > 10 µM | IC50 (second compound 3.16 µM): > 10 µM | IC50 (second compound 10 µM): > 10 µM | viability, T/C [1]: 102% | viability, T/C [2]: 97.8% | viability, T/C [3]: 98.9% | viability, T/C [4]: 91.1% | viability, T/C [5]: 87.1% | viability, T/C [6]: 107% | viability, T/C [7]: 97.7% | viability, T/C [8]: 89.4% | viability, T/C [9]: 92.6% | viability, T/C [10]: 65.7% | viability, T/C [11]: 110% | viability, T/C [12]: 106% | viability, T/C [13]: 97.2% | viability, T/C [14]: 104% | viability, T/C [15]: 103% | viability, T/C [16]: 83.4% | viability, T/C [17]: 103% | viability, T/C [18]: 105% | viability, T/C [19]: 89.5% | viability, T/C [20]: 93.3% | viability, T/C [21]: 92% | viability, T/C [22]: 82.9% | viability, T/C [23]: 101% | viability, T/C [24]: 108% | viability, T/C [25]: 69.6% | viability, T/C [26]: 97% | viability, T/C [27]: 103% | viability, T/C [28]: 106% | viability, T/C [29]: 106% | viability, T/C [30]: 124% | viability, T/C [31]: 86.8% | viability, T/C [32]: 101% | viability, T/C [33]: 106% | viability, T/C [34]: 106% | viability, T/C [35]: 114% | viability, T/C [36]: 113%

O=C(c1cc(Cc2n[nH]c(=O)c3ccccc23)ccc1F)N1CCN(C(=O)C2CC2)CC1 + Cc1cnc(CNC(=O)c2c(=O)c3ccc(N4CCCN(C)CC4)nc3n3c2sc2ccccc23)cn1
IC50 (second compound 0.0316 µM): > 10 µM | IC50 (second compound 0.1 µM): > 10 µM | IC50 (second compound 0.316 µM): > 10 µM | IC50 (second compound 1 µM): > 10 µM | IC50 (second compound 3.16 µM): > 10 µM | IC50 (second compound 10 µM): > 10 µM | viability, T/C [1]: 95.5% | viability, T/C [2]: 87.9% | viability, T/C [3]: 88.9% | viability, T/C [4]: 85.1% | viability, T/C [5]: 82.4% | viability, T/C [6]: 102% | viability, T/C [7]: 92.3% | viability, T/C [8]: 92.5% | viability, T/C [9]: 82.1% | viability, T/C [10]: 72.5% | viability, T/C [11]: 85.8% | viability, T/C [12]: 68.9% | viability, T/C [13]: 82% | viability, T/C [14]: 96% | viability, T/C [15]: 90.1% | viability, T/C [16]: 99.8% | viability, T/C [17]: 95.5% | viability, T/C [18]: 93.8% | viability, T/C [19]: 85.6% | viability, T/C [20]: 106% | viability, T/C [21]: 105% | viability, T/C [22]: 89.5% | viability, T/C [23]: 97% | viability, T/C [24]: 108% | viability, T/C [25]: 117% | viability, T/C [26]: 108% | viability, T/C [27]: 95.3% | viability, T/C [28]: 84.4% | viability, T/C [29]: 99% | viability, T/C [30]: 89.5% | viability, T/C [31]: 103% | viability, T/C [32]: 95.2% | viability, T/C [33]: 106% | viability, T/C [34]: 116% | viability, T/C [35]: 95.9% | viability, T/C [36]: 101%

CC(C)n1c(=O)n(C)c2cnc3cc(F)c(-c4ccc(OCCCN5CCCCC5)nc4)cc3c21 + CN(C)c1ccc(Nc2c3ccc(NC(=O)CCN4CCCC4)cc3nc3cc(NC(=O)CCN4CCCC4)ccc23)cc1
IC50 (second compound 0.0316 µM): > 10 µM | IC50 (second compound 0.1 µM): > 10 µM | IC50 (second compound 0.316 µM): > 10 µM | IC50 (second compound 1 µM): > 10 µM | IC50 (second compound 3.16 µM): > 10 µM | IC50 (second compound 10 µM): > 10 µM | viability, T/C [1]: 104% | viability, T/C [2]: 91.2% | viability, T/C [3]: 101% | viability, T/C [4]: 87% | viability, T/C [5]: 83% | viability, T/C [6]: 108% | viability, T/C [7]: 93.8% | viability, T/C [8]: 86% | viability, T/C [9]: 104% | viability, T/C [10]: 64% | viability, T/C [11]: 96.2% | viability, T/C [12]: 98.7% | viability, T/C [13]: 98.4% | viability, T/C [14]: 81.9% | viability, T/C [15]: 95.9% | viability, T/C [16]: 82.7% | viability, T/C [17]: 93.7% | viability, T/C [18]: 95.2% | viability, T/C [19]: 76% | viability, T/C [20]: 89.8% | viability, T/C [21]: 88.9% | viability, T/C [22]: 93.8% | viability, T/C [23]: 92% | viability, T/C [24]: 95% | viability, T/C [25]: 74.3% | viability, T/C [26]: 85.4% | viability, T/C [27]: 91.7% | viability, T/C [28]: 104% | viability, T/C [29]: 106% | viability, T/C [30]: 93.3% | viability, T/C [31]: 86.6% | viability, T/C [32]: 71.7% | viability, T/C [33]: 103% | viability, T/C [34]: 96.7% | viability, T/C [35]: 103% | viability, T/C [36]: 98.4%
